Values of other authors in publication PMC5742115, “Pharmacophore Modeling and in Silico/in Vitro Screening for Human Cytochrome P450 11B1 and Cytochrome P450 11B2 Inhibitors” (Frontiers in Chemistry, 2017).
Like-named read-outs stand apart in the source and are kept apart here.

Experiments:
[1] = tested on: CYP11B2; conditions: cited from earlier work
[2] = tested on: CYP11B1; conditions: cited from earlier work
[3] = reported activity, supplementary Table 1, ref Ulmschneider et al., 2005a, read-out: CYP11B2 IC50
[4] = reported activity, supplementary Table 1, ref Roumen et al., 2010, read-out: CYP11B2 IC50
[5] = reported activity, supplementary Table 1, ref Ulmschneider et al., 2005b, read-out: CYP11B1 IC50

| SMILES | IC50 [1, 3] | also measured |
| --- | --- | --- |
| N#Cc1ccc(C2(C(=O)OCc3ccc(F)cc3)CCc3cncn32)c(Cl)c1 (stereo not drawn) [Compound 5] | – | IC50 ([1]; Figure 3, training compounds, ref Meredith et al., 2013, read-out: hCYP11B2 IC50): 3.8 nM; IC50 ([2]; Figure 3, training compounds, ref Meredith et al., 2013, read-out: hCYP11B1 IC50): < 0.1 nM |
| Clc1cccc2c1CC/C2=C\c1cccnc1 [CHEMBL176287] | 9 nM | IC50 ([2]; reported activity, supplementary Table 1, ref Ulmschneider et al., 2005a, read-out: CYP11B1 IC50): 304 nM |
| N#Cc1ccc([C@@]2(C(=O)OCc3ccc(F)cc3)CCc3cncn32)c(Cl)c1 [CHEMBL3099689] | – | IC50 ([1]; reported activity, supplementary Table 1, ref Meredith et al., 2013, read-out: CYP11B2 IC50): 3.8 nM; IC50 ([2]; reported activity, supplementary Table 1, ref Meredith et al., 2013, read-out: CYP11B1 IC50): 0.1 nM |
| CN1C(=O)CCc2cc(-c3cncc4ccccc34)ccc21 [CHEMBL451505] | – | IC50 ([1]; reported activity, supplementary Table 1, ref Lucas et al., 2008b, read-out: CYP11B2 IC50): 0.1 nM; IC50 ([2]; reported activity, supplementary Table 1, ref Lucas et al., 2008b, read-out: CYP11B1 IC50): 6.9 nM |
| Cc1ccc2c(c1)/C(=C/c1ccncc1)CC2 [CHEMBL371742] | 4 nM | – |
| Fc1ccc2c(c1)CC/C2=C\c1ccnc2ccccc12 [CHEMBL371509] | 20 nM | – |
| COc1ccc2c(c1)CCC/C2=C/c1ccncc1 [CHEMBL193496] | 56 nM | – |
| COc1cc2c(cc1OC)/C(=C/c1ccncc1)CCC2 [CHEMBL193858] | 11 nM | – |
| C(=C(c1ccccc1)c1ccccc1)c1cccnc1 [CHEMBL370317] | 9 nM | – |
| C(=C1c2ccccc2-c2ccccc21)c1ccncc1 [CHEMBL383145] | 5 nM | – |
| Cc1ccc2c(c1)/C(=C\c1ccncc1)CC2 [CHEMBL192077] | 8 nM | – |
| COc1ccc2c(c1)CC/C2=C\c1ccncc1 [CHEMBL359942] | 59 nM | – |
| Fc1ccc2c(c1)CC/C2=C\c1cccc2ncccc12 [CHEMBL195580] | 14 nM | – |
| C(=C1/CC(c2ccccc2)c2ccccc21)/c1cccnc1 (stereo not drawn) [CHEMBL193555] | 3 nM | – |
| Oc1ccc2cc(-c3cccnc3)ccc2c1 [CHEMBL195571] | – | IC50 ([1]; reported activity, supplementary Table 1, ref Voets et al., 2005, read-out: CYP11B2 IC50): 23 nM |
| Fc1ccc2c(c1)CC/C2=C/c1cccc2ncccc12 [CHEMBL195653] | 31 nM | – |
| COc1ccc2c(c1)CC/C2=C/c1ccncc1 [CHEMBL175609] | 55 nM | – |

| SMILES | IC50 [1, 3] | also measured |
| --- | --- | --- |
| COc1ccc2c(c1)CC/C2=C/c1cncs1 [CHEMBL195354] | 5 nM | – |
| COc1ccc2c(c1)CC/C2=C\c1cncs1 [CHEMBL192155] | 17 nM | – |
| CCOC(=O)c1cncn1[C@H](C)c1ccccc1 [CHEMBL681, Etomidate] | – | IC50 ([1]; reported activity, supplementary Table 1, ref Dorr et al., 1984, read-out: CYP11B2 IC50): 0.1 nM; IC50 [1, 4]: 1.7 nM |
| c1cncc(-c2ccc3c4c(cccc24)CC3)c1 [CHEMBL199683] | – | IC50 ([1]; reported activity, supplementary Table 1, ref Ulmschneider et al., 2006, read-out: CYP11B2 IC50): 14 nM |
| Fc1ccc2c(c1)CC/C2=C/c1ccnc2ccccc12 [CHEMBL371275] | 14 nM | – |
| COc1ccc2c(c1)/C(=C\c1ccncc1)CC2 [CHEMBL370281] | 26 nM | – |
| COc1ccc2c(c1)CCC/C2=C\c1ccncc1 [CHEMBL175979] | 22 nM | – |
| COc1ccc(Cn2cncc2CCCO)cc1 [CHEMBL597577] | – | IC50 [1, 4]: 59 nM |
| COc1ccc2c(c1)/C(=C/c1ccncc1)CC2 [CHEMBL365314] | 3 nM | – |
| C(=C1/CCc2ccccc21)/c1ccncc1 [CHEMBL175962] | 8 nM | – |
| CC1C/C(=C/c2cccnc2)c2ccccc21 (stereo not drawn) [CHEMBL373074] | 41 nM | – |
| C/C(=C1/CCc2cc(F)ccc21)c1cccnc1 [CHEMBL194047] | – | IC50 [2, 5]: 96 nM |
| Fc1ccc2c(c1)CC/C2=C/c1c[nH]cn1 [CHEMBL179247] | – | IC50 [2, 5]: 11.2 nM |
| CC(C)C(c1ccc(-c2ccccc2)nc1)n1ccnc1 (stereo not drawn) [CHEMBL2417622] | – | IC50 ([1]; reported activity, supplementary Table 1, ref Emmerich et al., 2013, read-out: CYP11B2 IC50): 28 nM |
| C(=C1c2ccccc2-c2ccccc21)c1cccnc1 [CHEMBL194928] | 6 nM | – |
| Clc1ccc2c(c1)/C(=C/c1cnc[nH]1)CCC2 [CHEMBL175144] | – | IC50 ([1]; reported activity, supplementary Table 1, ref Ulmschneider et al., 2005b, read-out: CYP11B2 IC50): 47.3 nM |
| COc1ccc2ccc(-c3cccnc3)cc2c1 [CHEMBL193863] | – | IC50 ([1]; reported activity, supplementary Table 1, ref Pinto-Bazurco Mendieta et al., 2013, read-out: CYP11B2 IC50): 68 nM |
